“And” between values parts separate entries of the source, which are not always exact repeats. Equal values may be shown once. Inconclusive results and toxic doses are left out. Cut-off read from the data, not from the text of the source: active = T/C of 150% or more; inactive = T/C below 125%.
System: L1210 leukemia ip in BDF1 mice, survival T/C
Assay: NCI In Vivo Anticancer Drug Screen. Data for tumor model L1210 Leukemia (intraperitoneal) in B6D2F1 (BDF1) mice
Details: endpoint: mean survival time, higher = longer survival
Method in brief: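 Antitumor effect is assessed in tumor-bearing animals. Survival in the compound arm is compared with a vehicle-dosed control arm and expressed as their quotient.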

[1] = dose: 100.0 mg/kg/injection, schedule: Q04DX003 (ip), vehicle: Klucel (hydroxypropylcellulose) (HPC)
[2] = dose: 200.0 mg/kg/injection, schedule: Q04DX003 (ip), vehicle: Klucel (hydroxypropylcellulose) (HPC)
[3] = dose: 400.0 mg/kg/injection, schedule: Q04DX003 (ip), vehicle: Klucel (hydroxypropylcellulose) (HPC)
[4] = dose: 100.0 mg/kg/injection, schedule: Q04DX003 (ip), vehicle: saline with Tween-80
[5] = dose: 200.0 mg/kg/injection, schedule: Q04DX003 (ip), vehicle: saline with Tween-80
[6] = dose: 400.0 mg/kg/injection, schedule: Q04DX003 (ip), vehicle: saline with Tween-80
[7] = dose: 100.0 mg/kg/injection, schedule: Q01DX001 (ip), vehicle: carboxymethylcellulose (CMC)
[8] = dose: 200.0 mg/kg/injection, schedule: Q01DX001 (ip), vehicle: carboxymethylcellulose (CMC)
[9] = dose: 400.0 mg/kg/injection, schedule: Q01DX001 (ip), vehicle: carboxymethylcellulose (CMC)
[10] = dose: 100.0 mg/kg/injection, schedule: Q01DX001 (ip), vehicle: saline
[11] = dose: 200.0 mg/kg/injection, schedule: Q01DX001 (ip), vehicle: saline
[12] = dose: 400.0 mg/kg/injection, schedule: Q01DX001 (ip), vehicle: saline
[13] = dose: 100.0 mg/kg/injection, schedule: Q04DX002 (ip), vehicle: Klucel (hydroxypropylcellulose) (HPC)
[14] = dose: 200.0 mg/kg/injection, schedule: Q04DX002 (ip), vehicle: Klucel (hydroxypropylcellulose) (HPC)
[15] = dose: 400.0 mg/kg/injection, schedule: Q04DX002 (ip), vehicle: Klucel (hydroxypropylcellulose) (HPC)
[16] = dose: 100.0 mg/kg/injection, schedule: Q01DX009 (ip), vehicle: saline
[17] = dose: 200.0 mg/kg/injection, schedule: Q01DX009 (ip), vehicle: saline

Measured: T/C

NC(=O)NCCC(=O)O
inactive: dose: 100.0 mg/kg/injection, schedule: Q04DX002 (ip), vehicle: saline 115 % of control | dose: 200.0 mg/kg/injection, schedule: Q04DX002 (ip), vehicle: saline 112 % of control | dose: 400.0 mg/kg/injection, schedule: Q04DX002 (ip), vehicle: saline 101 % of control

C[CH2][Sn]([c]1ccccc1)([c]1ccccc1)[c]1ccccc1
inactive: dose: 12.5 mg/kg/injection, schedule: Q01DX009 (ip), vehicle: saline with Tween-80 97 % of control | dose: 25.0 mg/kg/injection, schedule: Q01DX009 (ip), vehicle: saline with Tween-80 99 % of control | dose: 50.0 mg/kg/injection, schedule: Q01DX009 (ip), vehicle: saline with Tween-80 99 % of control

CCOC(=S)SCc1ccc([N+](=O)[O-])cc1
inactive: dose: 100.0 mg/kg/injection, schedule: Q04DX002 (ip), vehicle: gum acacia 97 % of control | dose: 200.0 mg/kg/injection, schedule: Q04DX002 (ip), vehicle: gum acacia 100 % of control | dose: 400.0 mg/kg/injection, schedule: Q04DX002 (ip), vehicle: gum acacia 97 % of control

COc1cc(-c2nc3c4ccccc4c4ccccc4c3[nH]2)cc(OC)c1OC
inactive: [1] 94 % of control | [2] 96 % of control | [3] 105 % of control

Cc1ccc(S(=O)(=O)OC2CC(C(=O)O)N(S(=O)(=O)c3ccc(C)cc3)C2)cc1 (stereo not drawn)
inactive: dose: 100.0 mg/kg/injection, schedule: Q01DX009 (ip), vehicle: saline with Tween-80 104 % of control | [4] 98 % of control and 92 % of control | dose: 200.0 mg/kg/injection, schedule: Q01DX009 (ip), vehicle: saline with Tween-80 95 % of control | [5] 97 % of control and 101 % of control | [6] 96 % of control and 107 % of control

CCOC(=O)c1ccc(N(CCC(=O)COC(C)=O)C(C)=O)cc1
inactive: [7] 94 % of control | [8] 100 % of control | [9] 102 % of control

O=C(/C(=C\c1ccccc1)Oc1ccc([N+](=O)[O-])cc1)c1ccccc1
inactive: [10] 88 % of control | [11] 92 % of control | [12] 95 % of control

Cc1cc2nc(-c3cc4cc(Cl)cc(Cl)c4oc3=O)[nH]c2cc1C
inactive: [13] 108 % of control | [14] 104 % of control | [15] 115 % of control

COc1ccc(C(=O)Nc2c(C)cccc2C)cc1
inactive: dose: 100.0 mg/kg/injection, schedule: Q01DX009 (ip), vehicle: carboxymethylcellulose (CMC) 94 % of control and 90 % of control | [13] 112 % of control | dose: 100.0 mg/kg/injection, schedule: Q04DX002 (ip), vehicle: carboxymethylcellulose (CMC) 97 % of control and 108 % of control | dose: 100.0 mg/kg/injection, schedule: Q04DX003 (ip), vehicle: carboxymethylcellulose (CMC) 104 % of control | dose: 200.0 mg/kg/injection, schedule: Q01DX009 (ip), vehicle: carboxymethylcellulose (CMC) 94 % of control and 92 % of control | [14] 108 % of control | dose: 200.0 mg/kg/injection, schedule: Q04DX002 (ip), vehicle: carboxymethylcellulose (CMC) 100 % of control and 101 % of control | dose: 200.0 mg/kg/injection, schedule: Q04DX003 (ip), vehicle: carboxymethylcellulose (CMC) 106 % of control | dose: 400.0 mg/kg/injection, schedule: Q01DX009 (ip), vehicle: carboxymethylcellulose (CMC) 94 % of control and 97 % of control | [15] 108 % of control | dose: 400.0 mg/kg/injection, schedule: Q04DX002 (ip), vehicle: carboxymethylcellulose (CMC) 103 % of control | dose: 400.0 mg/kg/injection, schedule: Q04DX003 (ip), vehicle: carboxymethylcellulose (CMC) 106 % of control

CCOC(=O)COc1ccc(N2C(N)=NC(N)=NC2(C)C)cc1
inactive: [10] 107 % of control | [16] 117 % of control | [11] 102 % of control | [17] 98 % of control | [12] 97 % of control | dose: 400.0 mg/kg/injection, schedule: Q01DX009 (ip), vehicle: saline 104 % of control

O=C1c2ccccc2-c2c(N=Cc3ccc4c(c3)OCO4)c(Br)cc(Br)c21
inactive: dose: 100.0 mg/kg/injection, schedule: Q01DX001 (ip), vehicle: other 93 % of control | dose: 200.0 mg/kg/injection, schedule: Q01DX001 (ip), vehicle: other 98 % of control | dose: 400.0 mg/kg/injection, schedule: Q01DX001 (ip), vehicle: other 95 % of control

COC1C(COC(C)=O)OC(n2cnc3c(=S)nc[nH]c32)C1OC(C)=O (stereo not drawn)
inactive: [7] 114 % of control | [8] 104 % of control | [9] 111 % of control

CCCc1ccccc1O
inactive: dose: 100.0 mg/kg/injection, schedule: Q04DX003 (ip), vehicle: alcohol 97 % of control | dose: 200.0 mg/kg/injection, schedule: Q04DX003 (ip), vehicle: alcohol 94 % of control

CCN(CC)c1ccc(/C=C/C=O)cc1
inactive: dose: 50.0 mg/kg/injection, schedule: Q01DX009 (ip), vehicle: gum acacia 103 % of control | dose: 100.0 mg/kg/injection, schedule: Q01DX009 (ip), vehicle: gum acacia 103 % of control | dose: 100.0 mg/kg/injection, schedule: Q04DX003 (ip), vehicle: gum acacia 93 % of control | dose: 200.0 mg/kg/injection, schedule: Q01DX009 (ip), vehicle: gum acacia 91 % of control | dose: 200.0 mg/kg/injection, schedule: Q04DX003 (ip), vehicle: gum acacia 96 % of control

CCCCC(O)(CCCC)C(CC)CC
inactive: [4] 108 % of control | [5] 99 % of control | [6] 101 % of control

CCCCCCCCCCCCNC(=O)Nc1ccc(C)cc1C
inactive: dose: 100.0 mg/kg/injection, schedule: Q01DX009 (ip), vehicle: Klucel (hydroxypropylcellulose) (HPC) 98 % of control | [1] 95 % of control | dose: 200.0 mg/kg/injection, schedule: Q01DX009 (ip), vehicle: Klucel (hydroxypropylcellulose) (HPC) 94 % of control | [2] 96 % of control | dose: 400.0 mg/kg/injection, schedule: Q01DX009 (ip), vehicle: Klucel (hydroxypropylcellulose) (HPC) 96 % of control | [3] 100 % of control

Cc1nc(N)[nH]c(=O)c1CCCNS(=O)(=O)c1ccc(C(=O)O)cc1
inactive: [14] 88 % of control | [15] 112 % of control

COC(=O)/C=C(\C)Nc1ccc(-c2ccccc2)cc1
inactive: dose: 50.0 mg/kg/injection, schedule: Q01DX009 (ip), vehicle: saline 103 % of control | [10] 97 % of control | [16] 102 % of control | dose: 100.0 mg/kg/injection, schedule: Q04DX003 (ip), vehicle: saline 101 % of control | [11] 95 % of control | [17] 100 % of control | dose: 200.0 mg/kg/injection, schedule: Q04DX003 (ip), vehicle: saline 97 % of control | [12] 92 % of control | dose: 400.0 mg/kg/injection, schedule: Q04DX003 (ip), vehicle: saline 97 % of control

CC1=CC(=C(C#N)C#N)CC(C)(C)C1
inactive: [13] 101 % of control | [14] 101 % of control | [15] 93 % of control

c1cn[nH]c1
inactive: dose: 50.0 mg/kg/injection, schedule: Q01DX001 (ip), vehicle: carboxymethylcellulose (CMC) 96 % of control | [7] 100 % of control | [8] 96 % of control

Cc1ccc(NC(=O)N2CC2(C)C)cc1NC(=O)N1CC1(C)C
inactive: [1] 121 % of control | [2] 116 % of control | dose: 265.0 mg/kg/injection, schedule: Q04DX003 (ip), vehicle: Klucel (hydroxypropylcellulose) (HPC) 120 % of control | [3] 111 % of control | dose: 600.0 mg/kg/injection, schedule: Q04DX003 (ip), vehicle: Klucel (hydroxypropylcellulose) (HPC) 94 % of control

CCN(CC)CCCC(C)NC(=O)c1cccc2c(N)cccc12 (stereo not drawn)
inactive: dose: 25.0 mg/kg/injection, schedule: Q01DX009 (ip), vehicle: water 110 % of control | dose: 50.0 mg/kg/injection, schedule: Q01DX009 (ip), vehicle: water 103 % of control | dose: 100.0 mg/kg/injection, schedule: Q01DX009 (ip), vehicle: water 101 % of control | dose: 200.0 mg/kg/injection, schedule: Q01DX009 (ip), vehicle: water 95 % of control | dose: 400.0 mg/kg/injection, schedule: Q01DX009 (ip), vehicle: water 103 % of control

Reference: PubChem BioAssay AID248 (DTP/NCI, 2004)
